From US9421157B2, “Use of C-glycoside derivatives as pro-desquamating active agents” (L'OREAL, priority 2006, dated 2016)

System: corneodesmosine
Experiment: Desquamating activity: immunodetection of corneodesmosine on varnish strippings of dry skin after incubation with product
Format: biochemical
Settings: 7% by weight in Arlacel/Myrj base, 5 days at 37° C., 70% relative humidity
Protocol: In this test, corneodesmosine is sought by immunodetection after incubation. Corneodesmosine is one of the key markers of desquamation of […]. It is studied on an immunoblot after electrophoresis separation and transfer onto a membrane.
3×3.5 cm rectangles are cut out of varnish strippings performed on the calf area of legs bearing dry skin. They are each treated with 42 mg of product (4 mg/cm^2). Controls and tests are performed in parallel. A blank without product is prepared under the same conditions.
The tests are incubated at 37° C. and 70% relative humidity for 5 days. The controls are stored for 5 days at −20° C. Thus, 5 tests and 5 controls are obtained.
For each of the samples, acetone powders are prepared and weighed out. The proteins are extracted with 100 μl/mg of whole Laemmli buffer. They are assayed according to the Bradford method. The protein content of each sample is adjusted and allows a direct comparison of the various samples. The proteins are separated by SDS-Page electrophoresis on 12% acrylamide gel.
After transferring the proteins onto a PVDF membrane, the immunodetection is performed with the anticorneodesmosine antibody G3619 (Guy Serre) at 1/12500 according to a standard western blot technique. Revelation is performed by chemiluminescence. The bands detected by the Fluor Smax machine (Biorad) are quantified with the quantity-one software (Biorad).

Row | SMILES | degradation of corneodesmosine (result in words)
1 | CC(O)C[C@@H]1OC[C@@H](O)[C@H](O)[C@H]1O (stereo partly drawn) [C-β-D-xylopyranoside-2-hydroxypropane] | positive effect
2 | OCC(O)CO [Glycerol] | substantial degradation of corneodesmosine
